Source: patent publication US20220193025A1, “USE OF DIANHYDROHEXITOL TO ELIMINATE THE COSMETIC EFFECTS OF ACNE, DANDRUFF AND BAD ODORS” (ROQUETTE FRERES, priority 2019, published 2022)

Assays:
[1] = system: Propionobacterium acnes strain; experiment: Example 1: microbial population count over 28 days after contamination (microtiter method, TTC); assay type: cell-based; conditions: for Number of colony forming strains after: 24 h / Number of colony forming strains after: 7 days / Number of colony forming strains after: 14 days / Number of colony forming strains after: 21 days / Number of colony forming strains after: 28 days: 22° C.
Description: The samples are prepared under sterile conditions and deposited in microplates (2-ml wells) with the concentrations hereunder. Two analysis controls were produced: a positive control corresponding to 0.5% Phenonip®; a negative control consisting of 0.85% physiological saline solution. Samples and controls are contaminated by a Propionobacterium acnes bacterial strain with around 1.43×10^5 to 4.15×10^5 colony forming units per milliliter, denoted cfu/ml. After contamination, the samples are carefully mixed by suction-discharge cycles in order to ensure a uniform distribution of the microorganism. The whole is incubated at 22° C. during 28 days. The microbial population is sampled and counted at 24 hours, 7, 14, 21 and 28 days for the Propionobacterium acnes bacterial strain. The contaminated samples are collected and then deposited in serial dilutions in microtiter plates, in the presence of culture medium, which is a saline solution with 0.85% sodium chloride, and a dehydrogenase activity indicator reagent, which is 2,3,5-triphenyltetrazolium chloride (denoted TTC). The results are presented in the following pages with the variation of the microbial population over the 28 days of study, for the tested microbial strain. The measurements of microbial populations in the samples collected at each time, are carried out according to the following microtiter method, for one sample collection. In the 96 wells with a volume of 250 μL of a microtiter plate, 20 μL of the collected sample are diluted by a factor of 10 by dispersion in 180 μL of Letheen broth (Difco, ref. 268110) containing 1.5% of Tween 80 (Sigma, ref. […]) and TTC (Sigma, ref. […]). The microplate is incubated for 48 hours at 32.5° C., and the growth of the microorganisms is monitored by the color change, from colorless to red/pink. The highest reciprocal dilution indicating a growth makes it possible to determine the log number of each microorganism at each time. The measurements of microbial populations taken at each collection time are expressed as colony forming units/ml.

[2] = system: Corynobacterium xerosis strain; experiment: Example 3: microbial population count over 28 days after contamination (microtiter method, TTC); assay type: cell-based, Corynebacterium xerosis; conditions: for Number of colony forming strains after: 24 h / Number of colony forming strains after: 7 days / Number of colony forming strains after: 14 days / Number of colony forming strains after: 21 days / Number of colony forming strains after: 28 days: 22° C.
Description: (§1) The samples are prepared under sterile conditions and deposited in microplates (2-ml wells) with the concentrations hereunder. Two analysis controls were produced: a positive control corresponding to 0.5% Phenonip®; a negative control consisting of 0.85% physiological saline solution. Samples and controls are contaminated by three bacterial strains, Staphylococcus epidermidis, Corynebacterium xerosis and Propionobacterium acnes, with around 1.43×10^5 to 4.15×10^5 colony forming units per milliliter, denoted cfu/ml. After contamination, the samples are carefully mixed by suction-discharge cycles in order to ensure a uniform distribution of the microorganism. The whole is incubated at 22° C. during 28 days. The microbial population is sampled and counted at 24 hours, 7, 14, 21 and 28 days for each bacterial strain. The contaminated samples are collected and then deposited in serial dilutions in microtiter plates, in the presence of culture medium, which is a saline solution with 0.85% sodium chloride, and a dehydrogenase activity indicator reagent, which is 2,3,5-triphenyltetrazolium chloride (denoted TTC). The results are presented in the following pages with the variation of the microbial population over the 28 days of study, for the tested microbial strain. The measurements of microbial populations in the samples collected at each time, are carried out according to the following microtiter method, for one sample collection. In the 96 wells with a volume of 250 μL of a microtiter plate, 20 μL of the collected sample are diluted by a factor of 10 by dispersion in 180 μL of Letheen broth (Difco, ref. 268110) containing 1.5% of Tween 80 (Sigma, ref. […]) and TTC (Sigma, ref. […]). The microplate is incubated for 48 hours at 32.5° C., and the growth of the microorganisms is monitored by the color change, from colorless to red/pink. The highest reciprocal dilution indicating a growth makes it possible to determine the log number of each microorganism at each time. The measurements of microbial populations taken at each collection time are expressed as colony forming units/ml.

[3] = system: Propionobacterium acnes strain; experiment: as above; assay type: cell-based; conditions: for Number of colony forming strains after: 24 h / Number of colony forming strains after: 7 days / Number of colony forming strains after: 14 days / Number of colony forming strains after: 21 days / Number of colony forming strains after: 28 days: 22° C.
Description: as §1

[4] = system: Staphylococcus epidermidis strain; experiment: as above; assay type: cell-based; conditions: for Number of colony forming strains after: 24 h / Number of colony forming strains after: 7 days / Number of colony forming strains after: 14 days / Number of colony forming strains after: 21 days / Number of colony forming strains after: 28 days: 22° C.
Description: as §1

Aspergillus brasiliensis = conditions: U.S. Pat. No. 9,295,626, table 2; cited from earlier work
Candida albicans = conditions: U.S. Pat. No. 9,295,626, table 2; cited from earlier work
Staphylococcus aureus = conditions: U.S. Pat. No. 9,295,626, table 2; cited from earlier work
[5] = after 24 hours, for the three doses tested

## O[C@@H]1CO[C@H]2[C@@H]1OC[C@@H]2O [isosorbide, 1,4-3,6-dianhydrosorbitol]
[1]; Example 1
  bactericidal effect (conclusion in words): bactericide
[1]; after 24 hours, Example 1
  colony forming strain observed: no colony forming strain is observed
[1]; dose 1%
  Number of colony forming strains after: 24 h: 0 colony forming units/ml
  Number of colony forming strains after: 7 days: 0 colony forming units/ml
  Number of colony forming strains after: 14 days: 0 colony forming units/ml
  Number of colony forming strains after: 21 days: 0 colony forming units/ml
  Number of colony forming strains after: 28 days: 0 colony forming units/ml
[1]; dose 5%
  Number of colony forming strains after: 24 h: 0 colony forming units/ml
  Number of colony forming strains after: 7 days: 0 colony forming units/ml
  Number of colony forming strains after: 14 days: 0 colony forming units/ml
  Number of colony forming strains after: 21 days: 0 colony forming units/ml
  Number of colony forming strains after: 28 days: 0 colony forming units/ml
[1]; dose 9%
  Number of colony forming strains after: 24 h: 0 colony forming units/ml
  Number of colony forming strains after: 7 days: 0 colony forming units/ml
  Number of colony forming strains after: 14 days: 0 colony forming units/ml
  Number of colony forming strains after: 21 days: 0 colony forming units/ml
  Number of colony forming strains after: 28 days: 0 colony forming units/ml
[2]
  bactericidal effect (conclusion in words): moderate bactericide
[2]; [5]
  reduction of the number of colony forming strains: at least 3 log 10
[2]; after 7 days
  colony forming strain observed: not any more colony forming strain
[2]; dose 1%
  Number of colony forming strains after: 24 h: 4 × 10^2 colony forming units/ml
  Number of colony forming strains after: 7 days: 0 colony forming units/ml
  Number of colony forming strains after: 14 days: 0 colony forming units/ml
  Number of colony forming strains after: 21 days: 0 colony forming units/ml
  Number of colony forming strains after: 28 days: 0 colony forming units/ml
[2]; dose 5%
  Number of colony forming strains after: 24 h: 1 × 10^2 colony forming units/ml
  Number of colony forming strains after: 7 days: 0 colony forming units/ml
  Number of colony forming strains after: 14 days: 0 colony forming units/ml
  Number of colony forming strains after: 21 days: 0 colony forming units/ml
  Number of colony forming strains after: 28 days: 0 colony forming units/ml
[2]; dose 9%
  Number of colony forming strains after: 24 h: 3.7 × 10^2 colony forming units/ml
  Number of colony forming strains after: 7 days: 0 colony forming units/ml
  Number of colony forming strains after: 14 days: 0 colony forming units/ml
  Number of colony forming strains after: 21 days: 0 colony forming units/ml
  Number of colony forming strains after: 28 days: 0 colony forming units/ml
[3]; Example 3
  bactericidal effect (conclusion in words): bactericide
[3]; after 24 hours, Example 3
  colony forming strain observed: no colony forming strain is observed
[3]; dose 1%
  Number of colony forming strains after: 24 h: 0 colony forming units/ml
  Number of colony forming strains after: 7 days: 0 colony forming units/ml
  Number of colony forming strains after: 14 days: 0 colony forming units/ml
  Number of colony forming strains after: 21 days: 0 colony forming units/ml
  Number of colony forming strains after: 28 days: 0 colony forming units/ml
[3]; dose 5%
  Number of colony forming strains after: 24 h: 0 colony forming units/ml
  Number of colony forming strains after: 7 days: 0 colony forming units/ml
  Number of colony forming strains after: 14 days: 0 colony forming units/ml
  Number of colony forming strains after: 21 days: 0 colony forming units/ml
  Number of colony forming strains after: 28 days: 0 colony forming units/ml
[3]; dose 9%
  Number of colony forming strains after: 24 h: 0 colony forming units/ml
  Number of colony forming strains after: 7 days: 0 colony forming units/ml
  Number of colony forming strains after: 14 days: 0 colony forming units/ml
  Number of colony forming strains after: 21 days: 0 colony forming units/ml
  Number of colony forming strains after: 28 days: 0 colony forming units/ml
[4]
  bactericidal effect (conclusion in words): weak bactericide
[4]; [5]
  reduction of the number of colony forming strains: at least 2 log 10
[4]; after 7 days
  colony forming strain observed: not any colony forming strain
[4]; dose 1%
  Number of colony forming strains after: 24 h: 4 × 10^3 colony forming units/ml
  Number of colony forming strains after: 7 days: 0 colony forming units/ml
  Number of colony forming strains after: 14 days: 0 colony forming units/ml
  Number of colony forming strains after: 21 days: 0 colony forming units/ml
  Number of colony forming strains after: 28 days: 0 colony forming units/ml
[4]; dose 5%
  Number of colony forming strains after: 24 h: 1 × 10^3 colony forming units/ml
  Number of colony forming strains after: 7 days: 0 colony forming units/ml
  Number of colony forming strains after: 14 days: 0 colony forming units/ml
  Number of colony forming strains after: 21 days: 0 colony forming units/ml
  Number of colony forming strains after: 28 days: 0 colony forming units/ml
[4]; dose 9%
  Number of colony forming strains after: 24 h: 7 × 10^2 colony forming units/ml
  Number of colony forming strains after: 7 days: 0 colony forming units/ml
  Number of colony forming strains after: 14 days: 0 colony forming units/ml
  Number of colony forming strains after: 21 days: 0 colony forming units/ml
  Number of colony forming strains after: 28 days: 0 colony forming units/ml
Aspergillus brasiliensis
  minimum inhibitory concentration: 10%
Candida albicans
  minimum inhibitory concentration: 10%
Staphylococcus aureus
  minimum inhibitory concentration: 10%
